Laboratory results as given in ChEMBL document CHEMBL1201862, “PubChem BioAssay data set” (2004).
Activity calls are given as the source filed them. No stated cut-off is given here; in the data, actives have a measured IC50 and inactives only a lower limit.

Target: Envelope glycoprotein gp160 (Human immunodeficiency virus 1, UniProt Q6QLK5)
Test: inhibitors of HIV fusion peptide binding, primary screen, biochemical, uHTS, fluorescence dequenching (AID 1986)

Envelope glycoprotein gp160, sequence (Q6QLK5 whole entry, the tested form may be a part): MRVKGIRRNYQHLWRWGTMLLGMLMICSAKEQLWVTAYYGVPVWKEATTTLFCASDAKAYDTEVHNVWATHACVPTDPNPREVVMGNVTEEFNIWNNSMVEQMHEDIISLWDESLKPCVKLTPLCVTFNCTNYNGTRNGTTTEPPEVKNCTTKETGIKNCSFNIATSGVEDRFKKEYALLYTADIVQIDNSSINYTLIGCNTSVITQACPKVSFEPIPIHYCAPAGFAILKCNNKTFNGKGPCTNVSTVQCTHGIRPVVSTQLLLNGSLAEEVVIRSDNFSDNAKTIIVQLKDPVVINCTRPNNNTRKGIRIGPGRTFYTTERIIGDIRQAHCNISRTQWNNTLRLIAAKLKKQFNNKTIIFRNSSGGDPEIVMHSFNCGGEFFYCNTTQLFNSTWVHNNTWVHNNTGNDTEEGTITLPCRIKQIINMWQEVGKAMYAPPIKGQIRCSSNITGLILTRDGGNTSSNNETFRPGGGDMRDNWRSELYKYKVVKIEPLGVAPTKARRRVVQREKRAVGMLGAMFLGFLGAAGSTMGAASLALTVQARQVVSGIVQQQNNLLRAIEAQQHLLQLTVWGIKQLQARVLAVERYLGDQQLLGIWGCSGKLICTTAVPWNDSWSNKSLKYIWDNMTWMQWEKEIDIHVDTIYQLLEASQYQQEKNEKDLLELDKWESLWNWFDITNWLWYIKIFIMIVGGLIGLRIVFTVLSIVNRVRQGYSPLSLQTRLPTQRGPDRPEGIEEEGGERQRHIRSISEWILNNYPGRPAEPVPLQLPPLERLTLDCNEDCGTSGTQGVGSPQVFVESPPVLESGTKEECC

| Structure (SMILES) | IC50 |
| --- | --- |
| O=C(NN1C(=O)/C(=C/c2ccc(O)c([N+](=O)[O-])c2)SC1=S)c1ccccc1Cl | 28.2 µM (active) |
| CC(C)(C)CC(C)(C)c1ccc(OCC(=O)N/N=C/c2ccc(S(=O)(=O)O)o2)cc1 | 27.8 µM (active) |
